# From US11484559B2, “Kapok tree flower extract, and cosmetic, pharmaceutical or dermatological compositions containing same” (Laboratoires Expanscience, priority 2017, dated 2022)
# Key:
# [1] = tested on: SPARC; assay: Gene expression in normal human dermal fibroblasts (RT-qPCR): SPARC; format: cell-based; conditions: TGFβ1 5 ng/ml
# Description: (§1) The effect of the KPO extract was evaluated on the gene expression of markers involved in cell communication and in the organisation of the dermal extracellular matrix in the fibroblasts: normal human dermal fibroblasts were incubated for 6 hours or 24 hours with 0.0005% or 0.001% KPO extract (d.e.) or TGFβ1 at 5 ng/ml (positive control for dermal matrix induction markers). At the end of incubation, the gene expression of the following markers was analysed by RT-qPCR. • CTNNA1 (Catenin α): binds to cadherins to promote cellular interactions. • Syndecan: proteoglycan which consolidates cell/cell and cell/matrix interactions. • Laminin 5 (α3β3γ2): a molecule that assists adhesion to the basal membrane. • TNC (Tenacin C): extracellular matrix proteins involved in cohesion of the dermo-epidermal junction and which promote the synthesis of collagen VII. • SPARC: protein associated with various constituents of the extracellular matrix and which contributes to its organisation. • BGN (Biglycan): proteoglycan involved in the assembly of collagen fibres. • Versican: a major component of the ECM which plays a central role in the morphogenesis and maintenance of tissues. […]
# (§2) The results are given as relative quantities (RQ) with respect to the untreated control. […]
# [2] = tested on: BGN (Biglycan); assay: Gene expression in normal human dermal fibroblasts (RT-qPCR): BGN; format: cell-based; conditions: TGFβ1 5 ng/ml
# Description: as §1, §2
# [3] = tested on: CTNNA1 (Catenin α); assay: Gene expression in normal human dermal fibroblasts (RT-qPCR): CTNNA1; format: cell-based; conditions: TGFβ1 5 ng/ml
# Description: as §1, §2
# [4] = tested on: Syndecan; assay: Gene expression in normal human dermal fibroblasts (RT-qPCR): Syndecan; format: cell-based; conditions: TGFβ1 5 ng/ml
# Description: as §1, §2
# [5] = tested on: TNC (Tenacin C); assay: Gene expression in normal human dermal fibroblasts (RT-qPCR): TNC; format: cell-based; conditions: TGFβ1 5 ng/ml
# Description: as §1, §2
# [6] = tested on: Versican; assay: Gene expression in normal human dermal fibroblasts (RT-qPCR): Versican; format: cell-based; conditions: TGFβ1 5 ng/ml
# Description: as §1, §2
# [7] = tested on: Collagen I; assay: Gene expression in normal human dermal fibroblasts (RT-qPCR): Collagen I; format: cell-based; conditions: TGFβ1 5 ng/ml
# Description: as §1, §2
# [8] = tested on: Collagen III; assay: Gene expression in normal human dermal fibroblasts (RT-qPCR): Collagen III; format: cell-based; conditions: TGFβ1 5 ng/ml
# Description: as §1, §2
# [9] = tested on: Collagen IV; assay: Gene expression in normal human dermal fibroblasts (RT-qPCR): Collagen IV; format: cell-based; conditions: TGFβ1 5 ng/ml
# Description: as §1, §2
# [10] = tested on: Collagen VII; assay: Gene expression in normal human dermal fibroblasts (RT-qPCR): Collagen VII; format: cell-based; conditions: TGFβ1 5 ng/ml
# Description: as §1, §2
# [11] = tested on: Fibronectin; assay: Gene expression in normal human dermal fibroblasts (RT-qPCR): Fibronectin; format: cell-based; conditions: TGFβ1 5 ng/ml
# Description: as §1, §2
# [12] = tested on: Elastin; assay: Gene expression in normal human dermal fibroblasts (RT-qPCR): Elastin; format: cell-based; conditions: TGFβ1 5 ng/ml
# Description: as §1, §2
# [13] = tested on: LOXL; assay: Gene expression in normal human dermal fibroblasts (RT-qPCR): LOXL; format: cell-based; conditions: TGFβ1 5 ng/ml
# Description: as §1, §2
# [14] = tested on: Dermatopontin; assay: Gene expression in normal human dermal fibroblasts (RT-qPCR): Dermatopontin; format: cell-based; conditions: TGFβ1 5 ng/ml
# Description: as §1, §2
# [15] = tested on: intracellular ROS (Reactive Oxygen Species); assay: Production of ROS in keratinocytes subjected to H2O2 stress (DCFH-DA probe); format: cell-based, human; conditions: for ROS Mean: H2O2 100 μM
# Description: The antioxidant potential of the KPO extract was evaluated in an assay model of intracellular ROS (Reactive Oxygen Species) induced by pro-oxidising H2O2 stress. Normal human epidermal keratinocytes were pre-incubated for 24 hours with KPO extract at 0.001%, 0.002% or 0.005% (d.e.) or reference anti-inflammatory molecules Quercetin at 10 μM or Vitamin C at 500 μM. The cell layer was then contacted with a DCFH-DA probe prior to induction of oxidative stress by 100 μM of H2O2. The amount of ROS produced was evaluated by measuring the fluorescence emitted when the probe is oxidised. The results were analysed statistically by one-factor variance analysis followed by a Tukey test: **p<0.01; ***p<0.001.
# [16] = tested on: Prostaglandin E2 (PGE2); assay: Production of PGE2 in keratinocytes stimulated by PMA (ELISA); format: cell-based, human; conditions: indomethacin at 0.1 μM
# Description: The keratinocytes were then stimulated by 10 μg/ml of PMA (Phorbol Myristate Acetate) and incubated overnight with KPO extract or reference molecules. […] The significance was evaluated by means of one-factor variance analysis followed by a Tukey test: *p<0.05; ***p<0.001; ns: non-significant p>0.05.
molecule,measurement,setting,value
TGFβ1: positive control for dermal matrix induction markers,SPARC Degree of expression (Relative Quantity),[1]; 6 h of treatment,1.28 ns
same,SPARC Degree of expression (Relative Quantity),[1]; 24 h of treatment,2.00 ***
same,BGN Degree of expression (Relative Quantity),[2]; 6 h of treatment,1.28 ns
same,BGN Degree of expression (Relative Quantity),[2]; 24 h of treatment,2.92 ***
same,CTNNA1 Degree of expression (Relative Quantity),[3]; 6 h of treatment,1.07 ns
same,CTNNA1 Degree of expression (Relative Quantity),[3]; 24 h of treatment,1.07 ns
same,Syndecan Degree of expression (Relative Quantity),[4]; 6 h of treatment,1.85 ns
same,Syndecan Degree of expression (Relative Quantity),[4]; 24 h of treatment,8.08 ***
same,TNC Degree of expression (Relative Quantity),[5]; 6 h of treatment,0.94 ns
same,TNC Degree of expression (Relative Quantity),[5]; 24 h of treatment,1.79 *
same,Versican Degree of expression (Relative Quantity),[6]; 6 h of treatment,1.61 ns
same,Versican Degree of expression (Relative Quantity),[6]; 24 h of treatment,2.87 **
same,Collagen I Degree of expression (Relative Quantity),[7]; 6 h of treatment,0.84 ns
same,Collagen I Degree of expression (Relative Quantity),[7]; 24 h of treatment,2.30 *
same,Collagen III Degree of expression (Relative Quantity),[8]; 6 h of treatment,0.91 ns
same,Collagen III Degree of expression (Relative Quantity),[8]; 24 h of treatment,1.24 ns
same,Collagen IV Degree of expression (Relative Quantity),[9]; 6 h of treatment,1.68 ***
same,Collagen IV Degree of expression (Relative Quantity),[9]; 24 h of treatment,2.81 **
same,Collagen VII Degree of expression (Relative Quantity),[10]; 6 h of treatment,1.96 ***
same,Collagen VII Degree of expression (Relative Quantity),[10]; 24 h of treatment,3.07 ***
same,Fibronectin Degree of expression (Relative Quantity),[11]; 6 h of treatment,1.09 ns
same,Fibronectin Degree of expression (Relative Quantity),[11]; 24 h of treatment,2.12 *
same,Elastin Degree of expression (Relative Quantity),[12]; 6 h of treatment,0.72 ns
same,Elastin Degree of expression (Relative Quantity),[12]; 24 h of treatment,3.65 **
same,LOXL Degree of expression (Relative Quantity),[13]; 6 h of treatment,1.05 ns
same,LOXL Degree of expression (Relative Quantity),[13]; 24 h of treatment,1.10 ns
same,Dermatopontin Degree of expression (Relative Quantity),[14]; 6 h of treatment,1.14 ns
same,Dermatopontin Degree of expression (Relative Quantity),[14]; 24 h of treatment,1.36 *
"O=C1O[C@H]([C@@H](O)CO)C(O)=C1O [Vit C, Vitamin C]",ROS change vs H2O2,[15]; Vit C 500 μM,−90% vs H2O2 ***
same,ROS Mean,[15]; Vit C 500 μM,12807.703 Arbitrary Unit
"COc1ccc2c(c1)c(CC(=O)O)c(C)n2C(=O)c1ccc(Cl)cc1 [Indo, indomethacin]",PGE2 change vs PMA,[16],−77% vs PMA ***
same,PGE2 Mean,[16]; PMA stimulated,181.780 (pg/ml)/OD neutral red
O=c1c(O)c(-c2ccc(O)c(O)c2)oc2cc(O)cc(O)c12 [Quercetin],ROS change vs H2O2,[15]; Quercetin at 10 μmol/l,−90% vs H2O2 ***
same,ROS Mean,[15]; Quercetin at 10 μmol/l,12959.361 Arbitrary Unit
